Where “and” joins values, the source holds several entries; their conditions need not be identical. Equal entries are not always repeated. Entries after “also recorded” stand apart in the source; their conditions may differ. No end group written: not given here. A value given as a limit tells only on which side of the number the result lay.

Assay [1] concerns mice. Description: Tail flick response (analgesic assay). In kind it is in vivo. Set-up: tail flick response, Prior Injection Time (Control) Predose / tail flick response, Post Injection Time 2 min.: unit not given here. The settings on record: for tail flick response, Prior Injection Time (Control) Predose / tail flick response, Post Injection Time 5 / tail flick response, Post Injection Time 10 / Response (analgesic activity) / tail flick response, Post Injection Time 2 min.: individual mice; for tail flick response, Prior Injection Time (Control) Predose: before intracerebral ventrical injection; for tail flick response, Post Injection Time 5 / tail flick response, Post Injection Time 10 / No. of Mice Responsive/Total No. of Mice / Response (analgesic activity) / tail flick response, Post Injection Time 2 min.: intracerebral ventrical, Beta-endorphin 4.5nm, Arg6-Phe7 met-enkephalin 6 n moles; for tail flick response, Post Injection Time 5 / tail flick response, Post Injection Time 10 / No. of Mice Responsive/Total No. of Mice / Response (analgesic activity): Acetylcholine 20ng; for tail flick response, Post Injection Time 10 / Response (analgesic activity) / tail flick response, Post Injection Time 2 min.: Met Enk 120nm. As to the method: For the analgesic assay, mice were injected (intracerebral ventrical) with 6 n moles of the synthetic peptide (Tyr-Gly-Gly-Phe-Met-Arg-Phe). The tail flick response assay was carried out according to the method of Dayton, et al., Proc. Soc. […] The tail flick response (analgesic activity) was measured prior to injection and at 2,5 and 10 minutes post injection time. Results are tabulated in Table V. Further results are given in Inturris, et. al., Proc. Nat'l. Acad. Sci. (U.S.A.), 77,5512 (1980).

The target of another assay is T1, opiate receptor (Mus musculus, UniProt P32300).
T1 construct: endogenous in cells; host or cells: neuroblastoma x glioma hybrid cells (NG108-15)
In words: Radioreceptor assay (opiate receptor binding activity). An excerpt:
Extracts of bovine adrenal medulla (BAM) or chromaffin granules (CG) therefrom were obtained by conventional methods known in the art and were purified using gel filtration, high pressure liquid chromatography (HPLC) and fluorometric detection by method of Bohlen, P. et al., Anal. Biochem. 67, 437 (1975).
Opioid activities for peaks I-V were quantitatively determined by conventional means in radioreceptor assays before (Native) and after trypsin digestion of each of the peaks from BAM and CG sources.

The test system of assay [2] is N-terminal directed Met-enkephalin antibody. Description: Radioimmunoassay with N-terminal directed Met-enkephalin antibody. It is filed as binding. The settings on record: fractions from RP-18 of peak V; 1.3 g wet weight of chromaffin granules isolated from 30 g of adrenal medulla. As to the method: (§1) Radioimmunoassays were performed using a C-terminal directed Leu-enkephalinantibody and a N-terminal directed Met-enkephalin antibody. The characteristics of these antibodies and methods of use have been described previously and were followed in Lewis, R. V., et al., Biochem. Biophys. Res. Commun. 89, 822 (1979).

Assay [3] relates to C-terminal directed Leu-enkephalin antibody. In words: Radioimmunoassay with C-terminal directed Leu-enkephalin antibody. Conditions: fractions from RP-18 of peak V; 1.3 g wet weight of chromaffin granules isolated from 30 g of adrenal medulla. It is filed as binding. As to the method: as §1
In assay [4] the test system is mice. The settings on record: intracerebra-ventricular or intravenous administration to mice; cited from earlier work.
The next assay has as its system rats. Conditions: intracerebra-ventricular or intravenous administration to rats; cited from earlier work.
The test system of assay [5] is mice. Description: Tail flick response (analgesic assay). In kind it is in vivo. Set-up: tail flick response, Prior Injection Time (Control) Predose / tail flick response, Post Injection Time 2 min.: unit not given here. Conditions: individual mice.

T1 sequence (P32300 whole entry): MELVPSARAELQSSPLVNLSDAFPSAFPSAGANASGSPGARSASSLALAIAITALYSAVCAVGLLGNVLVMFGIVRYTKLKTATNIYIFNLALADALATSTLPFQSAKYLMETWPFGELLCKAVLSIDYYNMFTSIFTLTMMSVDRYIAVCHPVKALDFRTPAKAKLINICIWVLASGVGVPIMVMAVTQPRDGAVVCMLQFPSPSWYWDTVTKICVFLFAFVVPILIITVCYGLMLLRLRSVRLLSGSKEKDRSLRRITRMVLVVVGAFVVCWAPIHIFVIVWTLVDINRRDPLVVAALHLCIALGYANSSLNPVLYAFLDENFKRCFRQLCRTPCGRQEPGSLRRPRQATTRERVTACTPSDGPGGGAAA

Regarding `CC(=O)OCC[N+](C)(C)C` [Acetylcholine], in the assay with mice [1], the “tail flick response, Prior Injection Time (Control) Predose” value (“tail flick response … (Control) Predose” below) was 4.6 and 5.0 and 4.5; the “tail flick response, Post Injection Time 5” value is 6.1 and > 10; the “tail flick response, Post Injection Time 10” value is recorded as above 10; the “No. of Mice Responsive/Total No. of Mice” value is given as 3/3.

In the case of `CSCC[C@H](NC(=O)[C@H](Cc1ccccc1)NC(=O)CNC(=O)CNC(=O)[C@@H](N)Cc1ccc(O)cc1)C(=O)O` [F-T-2], at opiate receptor, the “opiate receptor binding activity in radioreceptor assay (in words)” value (from here on “opiate receptor binding activity … (in words)”) is “most active tryptic peptide”.

As to `CC(C)C[C@H](NC(=O)[C@H](Cc1ccccc1)NC(=O)CNC(=O)CNC(=O)[C@@H](N)Cc1ccc(O)cc1)C(=O)O` [Leu-Ek, leucine enkephalin], the N-Terminal radioimmunoassay in assay [2] is 0.4 nmoles/fraction. Besides, the C-Terminal radioimmunoassay in assay [3] worked out at 1.0 nmoles/fraction. Also, the analgesia entry in the assay on mice [4] is “weak and short term analgesia”; in the assay with rats it was “weak and short term analgesia”.

`CSCC[C@H](NC(=O)[C@H](Cc1ccccc1)NC(=O)CNC(=O)CNC(=O)[C@@H](N)Cc1ccc(O)cc1)C(=O)O` [Met-Ek, methionine enkephalin] yielded a Radioreceptor on opiate receptor (fractions from RP-18 of peak V, 1.3 g wet weight of chromaffin granules isolated from 30 g of adrenal medulla) of 1.0 nmoles/fraction. In assay [2], this molecule had a N-Terminal radioimmunoassay of 1.0 nmoles/fraction. For the same molecule, in assay [3], the C-Terminal radioimmunoassay was 0.03 nmoles/fraction. The “Response (analgesic activity)” value in the assay with mice [1] was “Neg”. Moreover, the “tail flick response … (Control) Predose” value with mice [5] (before intracerebral ventrical injection, listed as Met Enk) is 4.1 and 5.4 and 4.6. The “tail flick response, Post Injection Time 10” value in the assay on mice [5] (intracerebral ventrical, Met Enk 120nm, Acetylcholine 20ng, Beta-endorphin 4.5nm, Arg6-Phe7 met-enkephalin 6 n moles) was 6.3 and 5.9 and 5.0. Also, the “tail flick response, Post Injection Time 2 min.” value in the assay with mice [5] (intracerebral ventrical, Met Enk 120nm, Beta-endorphin 4.5nm, Arg6-Phe7 met-enkephalin 6 n moles) was 4.0 and 4.7. Also, the analgesia result in the assay with mice [4] was “weak and short term analgesia”; with rats, “weak and short term analgesia”.

For Beta-endorphin, in the assay on mice [1], the “tail flick response … (Control) Predose” value is 4.0 and 4.7 and 4.2 and 5.4 and 4.4 and 4.3; the “tail flick response, Post Injection Time 5” value was > 10 and > 9 and 3.4 and 3.1; the “Response (analgesic activity)” value is “Pos. and Neg”; the “tail flick response, Post Injection Time 10” value was 8 and > 10 and 3.8. Also, in the assay with mice [1], the “tail flick response, Post Injection Time 2 min.” value is 5.9 and 3.0 and 4.4 and 3.8; the “No. of Mice Responsive/Total No. of Mice” value is recorded as 5/7. Also, the “tail flick response, Post Injection Time 20” value in the assay with mice [5] (intracerebral ventrical, Beta-endorphin 4.5nm) is listed as above 10.

Take YGGFMK [F-T-1]: at opiate receptor, the “opiate receptor binding activity … (in words)” value is given as “opiate receptor binding activity”.

Turning to YGGFMK [Met-enkephalin-(Lys^6)], at opiate receptor (from binding curves), the “binding to the receptor relative to Met-enkephalin” value worked out at 9%.

Turning to YGGFMR [I-T-1], at opiate receptor, the “opiate receptor binding activity … (in words)” value is recorded as “active in the radioreceptor assay at high concentrations”.

Regarding YGGFMR [Met-enkephalin-(Arg^6)], at opiate receptor, the “binding activity relative to Leu-enkephalin” value was “less than 3%” and the “opiate receptor binding activity … (in words)” value is “active in the radioreceptor assay at high concentrations; also recorded: binds very poorly”.

For the molecule “YGGFMRF [Arg^6 --Phe^7 met-enkephalin, Tyr-Gly-Gly-Phe-Met-Arg-Phe]”, in the assay with mice [1], the “tail flick response … (Control) Predose” value was 5.7 and 5.2 and 4.6 and 3.6 and 3.7 and 4.0; the “tail flick response, Post Injection Time 5” value was 5.4 and 4.2 and 3.8 and 9.0 and 4.0; the “Response (analgesic activity)” value was “Neg. and Pos. and neg”; the “tail flick response, Post Injection Time 10” value is 6.3 and 5.8 and > 10 and 5.0 and 4. Besides, in the assay on mice [1], the “tail flick response, Post Injection Time 2 min.” value was 4.9 and 4.6 and 4.3 and 4.0 and 3.4 and 4.5; the “No. of Mice Responsive/Total No. of Mice” value is reported as 4/8.

Values taken from patent publication US4388236A, “Enkephalin-like compounds in bovine adrenal medulla” (Hoffmann-La Roche Inc., priority 1982, dated 1983).
